Laboratory results taken from patent publication US8492568B2, “Chromane derivatives as TRPV3 modulators” (Glenmark Pharamceuticals S.A., priority 2008, dated 2013).

Biological target: Human TRPV3 (Homo sapiens (Human), UniProt Q8NET8)
Experiment: Screening for TRPV3 antagonist using the 45Calcium uptake assay
Format: cell-based
Conditions: 2-APB (500 μM) induced 45Ca uptake, human TRPV3 expressing CHO cells
Description: The illustrative examples of the present invention are screened for TRPV3 activity according to a modified procedure described in Tóth, A., Kedei, N., Wang, Y. and Blumberg, P. M. Life Sciences (2003), 73, 487-498. The screening of the compounds can be carried out by other methods and procedures known to a person skilled in the art. Such screening methods may be found in (a) Hu, H.-Z. et al. J. Biol. Chem. (2004), 279, 35741-35747; (b) Smith, G. D. et al. Nature (2002), 418, 186-190; (c) Peier, A. M. et al. Science (2002), 296, 2046-2049.
Screening for TRPV3 Antagonist Using the ^45Calcium Uptake Assay:
The inhibition of TRPV3 receptor activation was followed as inhibition of 2-aminoethoxydiphenylborate (2-APB) induced cellular uptake of radioactive calcium. Test compounds were dissolved in dimethyl sulfoxide (DMSO) to prepare 20 mM stock solution and then diluted using plain medium with DMEM/F-12 containing 1.8 mM CaCl2 to get desired concentration. Final concentration of DMSO in the reaction was 0.5% (v/v). Human TRPV3 expressing CHO cells were grown in DMEM/F-12 medium with 10% FBS, 1% penicillin-streptomycin solution, 400 μg/ml of G-418. […] Radioactivity in the lysate was measured in Packardt Top count after addition of liquid scintillant. […] IC50 value was calculated from concentration response curve by nonlinear regression analysis using GraphPad PRISM software.

Sequence of Human TRPV3 (Q8NET8 whole entry): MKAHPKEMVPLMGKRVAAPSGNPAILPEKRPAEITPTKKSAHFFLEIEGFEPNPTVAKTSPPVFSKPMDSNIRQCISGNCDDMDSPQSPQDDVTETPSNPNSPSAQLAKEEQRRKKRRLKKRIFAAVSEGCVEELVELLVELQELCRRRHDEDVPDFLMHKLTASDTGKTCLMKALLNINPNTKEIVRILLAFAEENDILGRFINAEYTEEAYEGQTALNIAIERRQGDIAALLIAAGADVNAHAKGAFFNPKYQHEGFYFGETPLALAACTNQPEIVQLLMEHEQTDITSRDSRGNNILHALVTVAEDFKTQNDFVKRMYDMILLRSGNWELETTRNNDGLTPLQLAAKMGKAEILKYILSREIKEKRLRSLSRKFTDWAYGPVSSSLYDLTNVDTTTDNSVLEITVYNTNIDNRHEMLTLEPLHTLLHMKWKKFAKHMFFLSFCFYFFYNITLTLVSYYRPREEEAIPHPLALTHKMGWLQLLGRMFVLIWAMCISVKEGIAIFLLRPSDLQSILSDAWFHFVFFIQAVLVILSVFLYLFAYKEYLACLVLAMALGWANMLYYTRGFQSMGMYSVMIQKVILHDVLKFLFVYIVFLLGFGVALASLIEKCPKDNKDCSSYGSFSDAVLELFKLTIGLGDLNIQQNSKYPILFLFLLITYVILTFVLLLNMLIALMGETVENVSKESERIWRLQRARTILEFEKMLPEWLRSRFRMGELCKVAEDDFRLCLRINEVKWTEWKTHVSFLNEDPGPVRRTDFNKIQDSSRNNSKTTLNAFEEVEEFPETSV

IC50: 725.3 n.M
SMILES: COc1cccc(CNC(=O)CC2CC3(CCC3)Oc3ccc(Cl)cc32)c1OC1CCCC1 (stereo not shown) [Example 2, 2-(6-Chloro-3,4-dihydrospiro[chromene-2,1′-cyclobutan]-4-yl)-N-(2-cyclopentyloxy-3-methoxybenzyl)acetamide]
